Reference: patent publication US6169181A, “Compounds useful to treat retroviral infections” (Pharmacia & Upjohn Company, priority 1998, dated 2001)
Several values for one entry are separate records, joined by “and”; a condition that tells them apart may be missing. Equal entries are not always repeated. Where two headings read alike, the source gives them in different places.

Tests used:
HIV-1 protease [1] = molecular target: T1, HIV-1 protease (Human immunodeficiency virus type 1 group M subtype B, UniProt P04585); assay: biochemical; conditions: read-out: Protease % Inhib
Procedure, shortened: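 Percent inhibition came from fluorescence of FITC-tagged cleavage product, separated by filtration from uncleaved substrate captured on streptavidin-coated beads. The enzyme (10 μl of 0.1 μM) and compound acted on a biotin/FITC dual-labelled peptide for one hour at room temperature in the dark. The reaction ran in 0.1 M sodium acetate, pH 5.5, with 1.0 M NaCl and 0.05% NP-40.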

HIV-1 protease [2] = molecular target: T1, HIV-1 protease; assay: biochemical
Procedure, shortened: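 Biotinylated, FITC-labelled peptide substrate cleaved in 0.1 M sodium acetate pH 5.5, 1.0 M NaCl, 0.05% NP-40, room temperature. Filtered labelled product read by fluorescence; nonlinear least-squares fit.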

[3] = Table I, read-out: HIV Protease FITC Assay Ki

SMILES	inhibition at 0.123 µM (HIV-1 protease [1]; Table I, Dose 0.123 μM) [%]	inhibition at 0.37 µM (HIV-1 protease [1]; Table I, Dose 0.370 μM) [%]	inhibition at 1.1 µM (HIV-1 protease [1]; Table I, Dose 1.100 μM) [%]	inhibition at 3.3 µM (HIV-1 protease [1]; Table I, Dose 3.300 μM) [%]	inhibition at 10 µM (HIV-1 protease [1]; Table I, Dose 10.000 μM) [%]	inhibition at 30 µM (HIV-1 protease [1]; Table I, Dose 30.000 μM) [%]	Ki (HIV-1 protease [2]; [3])	inhibition at 0.123 µM (HIV-1 protease [1]) [%]	inhibition at 0.37 µM (HIV-1 protease [1]) [%]	inhibition at 1.1 µM (HIV-1 protease [1]) [%]	inhibition at 3.3 µM (HIV-1 protease [1]) [%]	inhibition at 10 µM (HIV-1 protease [1]) [%]	inhibition at 30 µM (HIV-1 protease [1]) [%]	Ki (HIV-1 protease [2]; HIV Protease FITC Assay Ki) [nM]	Ki (HIV-1 protease [2]; read-out: HIV Protease FITC Assay Ki) [nM]
CCC(Cc1ccccc1)c1cc(O)c(C(c2cccc(NS(=O)(=O)c3ccc([N+](=O)[O-])cc3)c2)C2CC2)c(=O)o1 (stereo not shown) [Example 150, N-(3-{Cyclopropyl-[6-(1-ethylphenethyl)-4-hydroxy-2-oxo-2H-pyran-3-yl]-methyl}-phenyl)-4-nitrobenzenesulfonamide]	78.4	96.5	100	103	107	109	5.9 nM	–	–	–	–	–	–	–	–
COCCOCCOCCOc1ccc2c(O)c(C(c3cccc(NS(=O)(=O)c4cn(C)cn4)c3)C3CC3)c(=O)oc2c1 (stereo not shown) [Example 151, N-(3-{Cyclopropyl-[7-(2-(2-(2-methoxyethoxy)-ethoxy)ethoxy)-4-hydroxycoumarin-3-yl]-methyl}-phenyl)-1-methyl-1H-imidazole-4-sulfonamide]	–	–	–	–	–	–	–	111	115	118	119	116	115	0.36	–
COc1ccc2c(O)c(C(c3cccc(NS(=O)(=O)c4cn(C)cn4)c3)C3CC3)c(=O)oc2c1 (stereo not shown) [Example 152, N-(3-{Cyclopropyl-[7-methoxy-4-hydroxycoumarin-3-yl]-methyl}-phenyl)-1-methyl-1H-imidazole-4-sulfonamide]	–	–	–	–	–	–	–	11.5	80.2	95.8	94.4	95.5	96.5	0.71	–
COCCOCCOCCOc1ccc2c(O)c(C(c3cccc(NS(=O)(=O)c4cccc5cccnc45)c3)C3CC3)c(=O)oc2c1 (stereo not shown) [Example 153, N-(3-{Cyclopropyl-[7-(2-(2-(2-methoxyethoxy)-ethoxy)ethoxy)-4-hydroxycoumarin-3-yl]-methyl}-phenyl)-8-quinolinesulfonamide]	81.3	91.1	100	104	103	101	1.85 nM	–	–	–	–	–	–	–	–
COCCOCCOCCOc1ccc2c(O)c(C(c3cccc(NS(=O)(=O)c4ccccn4)c3)C3CC3)c(=O)oc2c1 (stereo not shown) [Example 154, N-(3-{Cyclopropyl-[7-(2-(2-(2-methoxyethoxy)-ethoxy)ethoxy)-4-hydroxycoumarin-3-yl]-methyl}-phenyl)-2-pyridinesulfonamide]	–	–	–	–	–	–	–	99.8	98.2	99.5	97.6	104	99.2	0.22	–
CN(c1cccc(C(c2c(O)c3c(oc2=O)CCCCCC3)C2CC2)c1)S(=O)(=O)c1ccc(C#N)cc1 (stereo not shown) [Example 192, 4-Cyano-N-methyl-N-[3-[cyclopropyl(5,6,7,8,9,10-hexahydro-4-hydroxy-2-oxo-2H-cycloocta[b]pyran-3-yl)methyl]phenyl]-benzenesulfonamide]	44	76.3	94	96.9	103	94.4	7.2 nM	–	–	–	–	–	–	–	–
CN(c1cccc(C(c2c(O)c3c(oc2=O)CCCCCC3)C2CC2)c1)S(=O)(=O)c1ccc(F)cc1 (stereo not shown) [Example 193, 4-Fluoro-N-methyl-N-[3-[cyclopropyl(5,6,7,8,9,10-hexahydro-4-hydroxy-2-oxo-2H-cycloocta[b]pyran-3-yl)methyl]phenyl]-benzenesulfonamide]	18.4	40.3	77.7	98.1	108	103	35 nM	–	–	–	–	–	–	–	–
CN(c1cccc(C(c2c(O)c3c(oc2=O)CCCCCC3)C2CC2)c1)S(=O)(=O)c1cn(C)cn1 (stereo not shown) [Example 195, N-methyl-N-[3-[cyclopropyl(5,6,7,8,9,10-hexahydro-4-hydroxy-2-oxo-2H-cycloocta[b]pyran-3-yl)methyl]phenyl]-1H-Imidazole-1-methyl-sulfonamide]	60.9	85.1	90.8	90.8	93.1	92.7	3.7 nM	–	–	–	–	–	–	–	–
O=c1oc2c(c(O)c1C(c1cccc(NS(=O)(=O)c3ccccn3)c1)C1CC1)CCCCCC2 (stereo not shown) [Example 239]	83.6	96.6	98.4	99.5	103	108	1.44 nM and 0.86 nM	–	–	–	–	–	–	–	–
CCCC1(CCc2ccccc2)CC(O)=C(C(c2cccc(NS(=O)(=O)c3ccc(C#N)cn3)c2)C(C)(C)C)C(=O)O1 (stereo not shown) [Example 251, 5-Cyano-N-[3-(1-[5,6-dihydro-4-hydoxy-2-oxo-6-(2-phenethyl)-6-propyl-2H-pyran-3-yl]-2,2-dimethylpropyl)phenyl]-2-pyridinesulfonamide]	–	–	–	–	–	–	–	70.8	90.6	97.7	94.5	94.2	93.2	–	1.9
CCCC1(CCc2ccc(F)cc2)CC(O)=C(C(c2cccc(NS(=O)(=O)c3cn(C)cn3)c2)C(C)(C)C)C(=O)O1 (stereo not shown) [Example 252, N-[3-{1-(4-Hydroxy-5,6-dihydro-2-oxo-6-(2-(4-fluorophenyl)ethyl)-6-propyl-2H-pyran-3-yl)-2,2-dimethylpropyl}phenyl]-1-methyl-1H-imidazole-4-sulfonamide]	70	85	89.7	101	96.2	91.4	1.6 nM	–	–	–	–	–	–	–	–
Cn1cnc(S(=O)(=O)Nc2cccc(C(C3=C(O)CC(CCC4CC4)(CCC4CC4)OC3=O)C(C)(C)C)c2)c1 (stereo not shown) [Example 264, N-[3-(1-[6,6-Bis-(2-cyclopropyl-ethyl)-5,6-dihydro-4-hydroxy-2-oxo-2H-pyran-3-yl]-2,2-dimethyl-propyl)phenyl]-1-methyl-1H-imidazole-4-sulfonamide]	67.2	75	67.7	57.6	53.7	64.6	3.7 nM	–	–	–	–	–	–	–	–
CC(C)(C)C(C1=C(O)CC(CCC2CC2)(CCC2CC2)OC1=O)c1cccc(NS(=O)(=O)c2ccc(C#N)cn2)c1 (stereo not shown) [Example 265, N-[3-(1-[6,6-Bis-(2-cyclopropyl-ethyl)-5,6-dihydro-4-hydroxy-2-oxo-2H-pyran-3-yl]-2,2-dimethyl-propyl)phenyl]-5-cyano-2-pyridinesulfonamide]	33.2	56.3	57.8	63.7	80.3	85.6	1 nM	–	–	–	–	–	–	–	–
